# Read-outs that look alike come from different tables or passages of the source.
# Assays:
# [1] = system: rabbit model of coronary occlusion-reperfusion; details: cited from earlier work; for Effect of antagonist on the effects of PolyA (infarct size): given with PolyA, KW-3902 1 mg/kg i.v.
# [2] = system: closed-chest porcine model of regional ischemia and reperfusion; test: Non-surgical ischemia-reperfusion injury in a closed-chest porcine model (75 min LAD occlusion, reperfusion); type: in vivo
# Description: The use of combined adenosine and aprotinin treatment in the cath-lab setting was performed in a closed-chest porcine model of regional ischemia and reperfusion. Farm-bred pigs were initially anesthetized with ketamine, xylazine, acepromazine, diazepam and atropine, followed by maintenance anesthesia with inhaled isoflurane. Through a small femoral artery cut-down, a pigtail catheter was fluoroscopically guided into the left ventricle for injection of non-radioactive microspheres to measure regional myocardial blood flow. A similar cut-down was performed on the contralateral femoral artery, through which was placed a sheath to introduce a 7-Fr guide catheter and angioplasty-type balloon catheters. The 7-Fr guide catheter was inserted into this sheath and fluoroscopically guided to the left main coronary artery. The left main coronary ostium was engaged by the catheter and a guide wire. An angioplasty-type balloon catheter was guided into the LAD just distal to the first diagonal branch. […]
# After all instrumentation was complete, the animal was allowed to stabilize for 10 minutes. Baseline hemodynamics (arterial pressure, heart rate) and myocardial blood flow (microspheres) were measured. The microspheres were injected via the pigtail catheter to quantify myocardial blood flow during steady state. […]
# [3] = system: reperfusion injury in the canine preparation; details: 24 hours after start of reflow, cited from earlier work
# [4] = system: platelets; details: exogenous adenosine; cited from earlier work
# [5] = system: neutrophils; details: cited from earlier work; for Superoxide generation by neutrophils: neutrophils activated by fMLP, A23187, concanavalin A (adenosine)
# [6] = system: ischemically injured hearts (30 minutes of normothermic global ischemia); details: blood cardioplegia supplemented with 400 μM adenosine vs unsupplemented; cited from earlier work
# [7] = system: canine model of severe coronary occlusion; details: 10 μM in blood perfusate, first 30 min of reperfusion; after two hours of reperfusion; vs vehicle; cited from earlier work
# [8] = system: permanent (24 hours) coronary artery occlusion; details: 100,000 KIU i.v. 30 minutes after occlusion; cited from earlier work
# [9] = system: canine model of 15 minutes coronary artery occlusion; details: 30,000 KIU/kg bolus plus 7,000 KIU/kg/hr i.v. prior to occlusion; vs saline control; cited from earlier work
# [10] = system: rat model of coronary artery occlusion and 24 hours of reperfusion; details: cited from earlier work
# [11] = system: isolated canine hearts; details: cardioplegia containing 150 KIU aprotinin, cited from earlier work
# [12] = system: isolated rat hearts; details: 105 KIU/L aprotinin, pretreatment and adjunct to crystalloid cardioplegia; cited from earlier work
# [13] = system: rat myocardium slices; details: 200 KIU aprotinin, cited from earlier work
# [14] = system: models of LAD occlusion followed by reperfusion; details: at onset of reperfusion, continued 2 hours post-reperfusion; cited from earlier work
# [15] = system: canine model of LAD occlusion with reperfusion; details: cited from earlier work
# [16] = 5,000 KIU/kg before onset of reperfusion, vs vehicle
# [17] = 20,000 KIU/kg before onset of reperfusion
# [18] = infusion for first hour of reperfusion
compound,measurement,setting,value
"Cn1c(=O)c2[nH]c(-c3ccc(S(=O)(=O)O)cc3)nc2n(C)c1=O [8-SPT, 8-p-sulfophenyl theophylline]",Effect of antagonist on the effects of PolyA (infarct size),[1],reversed
Nc1ncnc2c1ncn2[C@@H]1O[C@H](CO)[C@@H](O)[C@H]1O [adenosine],Infarct size,"[2]; intracoronary adenosine approx 10-20 μM LAD blood concentration for about 30 min at reperfusion, group of three animals, delivery questionable (no vasodilatory effect at 15 min)",40.4±3.6%
same,Infarct size,"[2]; intracoronary adenosine approx 10-20 μM for about 30 min at reperfusion, the one experiment with delivery confirmed by vasodilation at 15 min reperfusion",10%
same,Regional contractile function,[3]; intracoronary 3.75 mg/min at onset of reperfusion,improved
same,Reduction of infarct size,[3]; intracoronary into LAD 3.75 mg/min at onset of reperfusion,75%
same,Concentrations inhibiting platelet aggregation,[4],2 to 40 µM
same,Superoxide generation by neutrophils,[5],inhibited
same,Post-ischemic systolic dysfunction,[6],reversed
same,Infarct size as percent of AAR (An/ARR),[7],significantly lower
same,Infarct size as percent of LV (An/LV),[7],significantly lower
aprotinin,Histologically apparent infarct size,[8],decreased
same,Recovery of systolic function in the area at risk (systolic shortening),[9],significantly greater recovery
same,Infarct size estimated from myocardial creatine kinase loss,[10]; [16],significantly reduced
same,Neutrophil accumulation (myocardial myeloperoxidase),[10]; [16],significantly reduced
same,Appearance of apoptosis in the area at risk myocardium,"[10]; 5,000 or 20,000 KIU/kg before onset of reperfusion",attenuated
same,Infarct size estimated from myocardial creatine kinase loss,[10]; [17],further significantly reduced
same,Neutrophil accumulation (myocardial myeloperoxidase),[10]; [17],significantly reduced
same,Lysosomal enzyme N-acetyl-β-D-glucosaminidase in coronary sinus blood during reperfusion,[11],significantly lower
same,Recovery of systolic function (end-systolic pressure-volume relationship),[11],significantly less recovery
same,Post-ischemic non-specific creatine kinase (CK) activity or CK-MB isoenzyme activity,[11]; vs control group,no difference
same,Recovery of post-ischemic ATP after reperfusion,[11]; vs control group,significantly greater
same,Myocardial protection,[12],significant protection
same,ATP content and protein synthesis of myocardium slices,"[13]; 4° C., up to 6 hours of storage",attenuated the decline
same,TNFα generation and uptake by myocardial tissue slices,[13],suppressed
polyadenylic acid,Reduction of infarct size,[1]; nearly sub-vasodilator dose at reperfusion,50%
same,PMNs superoxide generation and adherence to coronary endothelium,[5],significantly inhibited
"CCCn1c(=O)c2[nH]c(C34CC5CC(CC3C5)C4)nc2n(CCC)c1=O [KW-3902, 8-(3-noradamantyl)-1,3-dipropylxanthine]",Effect of antagonist on the effects of PolyA (infarct size),[1],not altered
"1S-[1a,2b,3b,4a(S*)]]-4-[7-[[2-(3-chloro-2-thienyl)-1-methylpropyl]amino]-3H-imidazo[4,5-b]pyridyl-3-yl]cyclopentane carboxamide [AMP-579]",Infarct size,[14],reduced
"CCNC(=O)[C@H]1O[C@@H](n2cnc3c(N)nc(NCCc4ccc(CCC(=O)O)cc4)nc32)[C@H](O)[C@@H]1O [CGS-21680, 2-[p-(2-carbonyl-ethyl)-phenylethylamino]-5′-N-ethylcarboxamidoadenosine]",Infarct size,"[15]; 60 min occlusion, intracoronary infusion for first hour of reperfusion, saline vehicle 29.8±2.3%",15.4±2.9 % of the area at risk
same,Neutrophil accumulation in the area at risk,[15]; [18],significantly reduced
same,Wall motion,[15]; [18],no improvement
same,Superoxide generation by neutrophils,[5],attenuated

# Reference: US20060205671A1 (priority 2003, published 2006)
